Assay results published in patent US8481536B2, “Benzotriazine inhibitors of kinases” (TargeGen, Inc., priority 2004, dated 2013).

molecular target: Pdgfrβ (Homo sapiens (Human), UniProt P09619); test: Pdgfrβ kinase inhibition in vitro (luciferase-based residual ATP); format: biochemical; settings: 500 nM ATP, PTK2 peptide, 60 minutes at 37 C; read-out: PDGFR IC50
Protocol: (§1) The ability of compounds of the present invention to inhibit the activity of three groups of kinases was tested. Kinases tested included the src family (primarily src and yes), some angiogenic growth factor receptors (Fgfr1, Vegfr, and Pdgfrβ) and the ephrin, EphB4. All kinase reactions were conducted in 96-well plates with a final reaction volume of 50 ul.
Pdgfrβ (0.16 ug/well, Panvera/Invitrogen) 500 nM ATP and the PTK2 peptide (700 uM) were combined with compound and reaction buffer as noted above for src. The reaction was incubated for 60 minutes at 37 C, and the residual ATP concentration was determined using the luciferase-based technique also noted above.
(§2) The test results for inhibition of Src kinase are presented in Table 1, and the test results for inhibition of some other kinases (i.e., Yes, EphB4, and Pdgfrβ) are presented in Table 2.

Pdgfrβ, sequence (P09619 33-1106): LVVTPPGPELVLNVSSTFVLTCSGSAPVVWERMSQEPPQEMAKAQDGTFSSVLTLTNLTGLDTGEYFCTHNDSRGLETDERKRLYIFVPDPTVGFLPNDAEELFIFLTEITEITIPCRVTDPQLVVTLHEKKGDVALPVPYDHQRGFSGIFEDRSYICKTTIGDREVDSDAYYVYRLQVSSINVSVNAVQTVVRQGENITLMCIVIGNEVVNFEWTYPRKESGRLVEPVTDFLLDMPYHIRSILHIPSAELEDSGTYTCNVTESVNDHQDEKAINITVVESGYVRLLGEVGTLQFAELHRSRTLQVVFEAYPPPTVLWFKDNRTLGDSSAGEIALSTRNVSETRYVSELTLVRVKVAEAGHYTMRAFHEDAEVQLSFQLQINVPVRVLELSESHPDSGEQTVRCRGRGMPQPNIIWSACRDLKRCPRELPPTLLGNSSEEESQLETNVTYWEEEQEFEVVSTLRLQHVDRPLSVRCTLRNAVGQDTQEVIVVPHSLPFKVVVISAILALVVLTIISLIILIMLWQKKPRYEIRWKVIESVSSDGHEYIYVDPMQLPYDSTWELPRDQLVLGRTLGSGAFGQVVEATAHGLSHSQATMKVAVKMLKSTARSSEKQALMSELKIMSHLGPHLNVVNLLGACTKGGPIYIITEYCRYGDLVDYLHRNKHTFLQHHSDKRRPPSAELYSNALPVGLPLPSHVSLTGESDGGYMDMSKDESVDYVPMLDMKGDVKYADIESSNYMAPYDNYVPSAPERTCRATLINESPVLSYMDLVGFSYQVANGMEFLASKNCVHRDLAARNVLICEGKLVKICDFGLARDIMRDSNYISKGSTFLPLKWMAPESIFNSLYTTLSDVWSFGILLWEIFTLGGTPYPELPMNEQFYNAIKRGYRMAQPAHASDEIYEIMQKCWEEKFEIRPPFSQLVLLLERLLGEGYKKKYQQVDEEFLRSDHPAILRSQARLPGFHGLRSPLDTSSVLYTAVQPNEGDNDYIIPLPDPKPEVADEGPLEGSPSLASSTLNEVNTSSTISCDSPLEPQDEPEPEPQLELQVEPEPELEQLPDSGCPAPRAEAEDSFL

| Structure (SMILES) | IC50 |
| --- | --- |
| Cc1cc(-c2cc(O)ccc2Cl)cc2nnc(Nc3ccc(S(=O)(=O)NCCN4CCCC4)cc3)nc12 | 1.7 nM |
| Cc1cc2nc(Nc3ccc(S(=O)(=O)NCCN4CCCC4)cc3)nnc2cc1-c1cc(O)ccc1Cl | 1.9 nM |
| Cc1cc(-c2cc(O)ccc2Cl)cc2nnc(Nc3ccc(S(=O)(=O)CCCN4CCCC4)cc3)nc12 | 2.9 nM |
| Cc1cc(O)cc(C)c1-c1cc(C)c2nc(Nc3ccc(OCCN4CCCC4)cc3)nnc2c1 | 41.1 nM |
| Cc1cccc(C)c1-c1cc(C)c2nc(Nc3nc(C(=O)NCCN4CCCC4)cs3)nnc2c1 [2-[7-(2,6-dimethyl-phenyl)-5-methyl-benzo[1,2,4]triazin-3-ylamino]-thiazole-4-carboxylic acid (2-pyrrolidin-1-yl-ethyl)-amide] | 60 nM |
| Cc1cccc(C)c1-c1cc(C)c2nc(Nc3cccc(S(N)(=O)=O)c3)nnc2c1 [3-[7-(2,6-dimethyl-phenyl)-5-methyl-benzo[1,2,4]triazin-3-ylamino]-benzenesulfonamide] | 16.3 nM |
| Cc1cc(-c2cc(O)ccc2Cl)cc2nnc(Nc3cccc(C(=O)NCCN(C)C)c3)nc12 [3-[7-(2-chloro-5-hydroxy-phenyl)-5-methyl-benzo[1,2,4]triazin-3-ylamino]-N-(2-dimethylamino-ethyl)-benzamide] | 5.3 nM |
| Cc1cc2nc(Nc3ccc(OCCN4CCCC4)cc3)nnc2cc1-c1cccc(O)c1 [3-{6-methyl-3-[4-(2-pyrrolidin-1-yl-ethoxy)-phenylamino]-benzo[1,2,4]triazin-7-yl}-phenol] | 7.4 nM |
| COc1cc2nc(Nc3ccc(S(=O)(=O)NCCN4CCCC4)cc3)nnc2cc1-c1ccccc1C [4-(6-methoxy-7-o-tolyl-benzo[1,2,4]triazin-3-ylamino)-N-(2-pyrrolidin-1-yl-ethyl)-benzenesulfonamide] | 39.3 nM |
| Cc1ccccc1-c1cc2nnc(Nc3ccc(S(=O)(=O)NCCN4CCCC4)cc3)nc2cc1C [4-(6-methyl-7-o-tolyl-benzo[1,2,4]triazin-3-ylamino)-N-(2-pyrrolidin-1-yl-ethyl)-benzenesulfonamide] | 24.3 nM |
| Cc1cc(-c2c(Cl)ccc(O)c2Cl)cc2nnc(Nc3ccc(S(=O)(=O)NCCN4CCCC4)cc3)nc12 [4-[7-(2,6-dichloro-3-hydroxy-phenyl)-5-methyl-benzo[1,2,4]triazin-3-ylamino]-N-(2-pyrrolidin-1-yl-ethyl)-benzenesulfonamide] | 8 nM |
| Cc1cc2nc(Nc3ccc(S(=O)(=O)NCCN4CCCC4)cc3)nnc2cc1-c1c(C)cccc1C [4-[7-(2,6-dimethyl-phenyl)-6-methyl-benzo[1,2,4]triazin-3-ylamino]-N-(2-pyrrolidin-1-yl-ethyl)-benzenesulfonamide] | 48.1 nM |
| Cc1cc(-c2cc(O)ccc2Cl)cc2nnc(Nc3ccc(S(=O)(=O)N(C)CCN4CCCC4)cc3)nc12 [4-[7-(2-chloro-5-hydroxy-phenyl)-5-methyl-benzo[1,2,4]triazin-3-ylamino]-N-methyl-N-(2-pyrrolidin-1-yl-ethyl)-benzenesulfonamide] | 3.1 nM |
| Cc1cc(F)ccc1-c1cc2nnc(Nc3ccc(S(=O)(=O)NCCN4CCCC4)cc3)nc2cc1C [4-[7-(4-fluoro-2-methyl-phenyl)-6-methyl-benzo[1,2,4]triazin-3-ylamino]-N-(2-pyrrolidin-1-yl-ethyl)-benzenesulfonamide] | 73.7 nM |
| Cc1cc(-c2cc(O)ccc2Cl)cc2nnc(Nc3cccc(N(C)C)c3)nc12 [4-chloro-3-[3-(3-dimethylamino-phenylamino)-5-methyl-benzo[1,2,4]triazin-7-yl]-phenol] | 20.8 nM |
| Cc1cc(-c2cc(O)ccc2Cl)cc2nnc(Nc3ccc(N4CCOCC4)nc3)nc12 [4-chloro-3-[5-methyl-3-(6-morpholin-4-yl-pyridin-3-ylamino)-benzo[1,2,4]triazin-7-yl]-phenol] | 2.1 nM |
| Cc1cc(-c2cc(O)ccc2Cl)cc2nnc(Nc3cccnc3)nc12 [4-chloro-3-[5-methyl-3-(pyridin-3-ylamino)-benzo[1,2,4]triazin-7-yl]-phenol] | 23.5 nM |
| Cc1cc(-c2cc(O)ccc2Cl)cc2nnc(Nc3ccc(S(=O)(=O)C4CCNCC4)cc3)nc12 [4-chloro-3-{5-methyl-3-[4-(piperidine-4-sulfonyl)-phenylamino]-benzo[1,2,4]triazin-7-yl}-phenol] | 2.8 nM |
| Cc1cc2nc(Nc3ccc(OCCN4CCCC4)cc3)nnc2cc1-c1cc(O)ccc1Cl [4-chloro-3-{6-methyl-3-[4-(2-pyrrolidin-1-yl-ethoxy)phenylamino]-benzo[1,2,4]triazin-7-yl}-phenol] | 5.7 nM |
| Cc1cccc(C)c1-c1cc(C)c2nc(Nc3ccc(C(=O)NCCN4CCCC4)o3)nnc2c1 [5-[7-(2,6-dimethyl-phenyl)-5-methyl-benzo[1,2,4]triazin-3-ylamino]-furan-2-carboxylic acid (2-pyrrolidin-1-yl-ethyl)-amide] | 117 nM |
| Cc1cc(-c2cc(O)ccc2Cl)cc2nnc(Nc3ccc(C(=O)NCCN4CCCC4)o3)nc12 [5-[7-(2-chloro-5-hydroxy-phenyl)-5-methyl-benzo[1,2,4]triazin-3-ylamino]-furan-2-carboxylic acid (2-pyrrolidin-1-yl-ethyl)-amide] | 14.4 nM |
| CC(=O)Nc1cc(-c2c(C)cccc2C)cc2nnc(Nc3ccc(OCCN4CCCC4)cc3)nc12 [N-{7-(2,6-dimethyl-phenyl)-3-[4-(2-pyrrolidin-1-yl-ethoxy)-phenylamino]-benzo[1,2,4]triazin-5-yl}-acetamide] | 11.5 nM |
| CC(=O)Nc1cc(-c2c(C)cccc2C)cc2nnc(Nc3ccc(S(=O)(=O)NCCN4CCCC4)cc3)nc12 [N-{7-(2,6-dimethyl-phenyl)-3-[4-(2-pyrrolidin-1-yl-ethylsulfamoyl)-phenylamino]-benzo[1,2,4]triazin-5-yl}-acetamide] | 1850 nM |
| Cc1cc(-c2c(Cl)cccc2Cl)cc2nnc(Nc3ccc(OCCN4CCCC4)cc3)nc12 [[7-(2,6-dichloro-phenyl)-5-methyl-benzo[1,2,4]triazin-3-yl]-[4-(2-pyrrolidin-1-yl-ethoxy)-phenyl]-amine] | 15 nM |

The next lines start with the values.

| IC50 | Structure (SMILES) |
| --- | --- |
| 628 nM | Cc1cccc(C)c1-c1cc(C)c2nc(Nc3ccccc3)nnc2c1 [[7-(2,6-dimethyl-phenyl)-5-methyl-benzo[1,2,4]triazin-3-yl]-phenyl-amine] |
| 76.3 nM | Cc1cccc(C)c1-c1cc(C)c2nc(Nc3cccc(OCCCN4CCN(C)CC4)c3)nnc2c1 [[7-(2,6-dimethyl-phenyl)-5-methyl-benzo[1,2,4]triazin-3-yl]-{3-[3-(4-methyl-piperazin-1-yl)-propoxy]-phenyl}-amine] |
| 50.3 nM | Cc1cccc(C)c1-c1cc(C)c2nc(Nc3ccc(OCCCN4CCN(C)CC4)cc3)nnc2c1 [[7-(2,6-dimethyl-phenyl)-5-methyl-benzo[1,2,4]triazin-3-yl]-{4-[3-(4-methyl-piperazin-1-yl)-propoxy]-phenyl}-amine] |
| 26.1 nM | Cc1ccc(F)cc1-c1cc2nnc(Nc3ccc(OCCN4CCCC4)cc3)nc2cc1C [[7-(5-fluoro-2-methyl-phenyl)-6-methyl-benzo[1,2,4]triazin-3-yl]-[4-(2-pyrrolidin-1-yl-ethoxy)-phenyl]-amine] |
| 1.2 nM | Cc1cc(-c2cc(O)ccc2Cl)cc2nnc(Nc3ccc(C(=O)N4CCNCC4)cc3)nc12 [{4-[7-(2-chloro-5-hydroxy-phenyl)-5-methyl-benzo[1,2,4]triazin-3-ylamino]-phenyl}-piperazin-1-yl-methanone] |
| 3.7 nM | Cc1cc2nc(Nc3ccc(C(=O)N4CCN(C)CC4)cc3)nnc2cc1-c1cc(O)ccc1Cl [{4-[7-(2-chloro-5-hydroxy-phenyl)-6-methyl-benzo[1,2,4]triazin-3-ylamino]-phenyl}-(4-methyl-piperazin-1-yl)-methanone] |
| 3.5 nM | COc1ccc(Cl)c(-c2cc3nnc(Nc4ccc(C(=O)N5CCN(C)CC5)cc4)nc3cc2C)c1 [{4-[7-(2-chloro-5-methoxy-phenyl)-6-methyl-benzo[1,2,4]triazin-3-ylamino]-phenyl}-(4-methyl-piperazin-1-yl)-methanone] |
| 6 nM | Cc1ccc(Cl)cc1-c1cc2nnc(Nc3ccc(C(=O)N4CCN(C)CC4)cc3)nc2cc1C [{4-[7-(5-chloro-2-methyl-phenyl)-6-methyl-benzo[1,2,4]triazin-3-ylamino]-phenyl}-(4-methyl-piperazin-1-yl)-methanone] |

molecular target: Recombinant human c-Src (Homo sapiens (Human), UniProt P12931); test: Src kinase inhibition in vitro (luciferase-based residual ATP, KinaseGlo); format: biochemical; settings: ATP 3 μM, PTK2 substrate, 90 minutes at room temperature
Sequence (P12931 whole entry, looked up): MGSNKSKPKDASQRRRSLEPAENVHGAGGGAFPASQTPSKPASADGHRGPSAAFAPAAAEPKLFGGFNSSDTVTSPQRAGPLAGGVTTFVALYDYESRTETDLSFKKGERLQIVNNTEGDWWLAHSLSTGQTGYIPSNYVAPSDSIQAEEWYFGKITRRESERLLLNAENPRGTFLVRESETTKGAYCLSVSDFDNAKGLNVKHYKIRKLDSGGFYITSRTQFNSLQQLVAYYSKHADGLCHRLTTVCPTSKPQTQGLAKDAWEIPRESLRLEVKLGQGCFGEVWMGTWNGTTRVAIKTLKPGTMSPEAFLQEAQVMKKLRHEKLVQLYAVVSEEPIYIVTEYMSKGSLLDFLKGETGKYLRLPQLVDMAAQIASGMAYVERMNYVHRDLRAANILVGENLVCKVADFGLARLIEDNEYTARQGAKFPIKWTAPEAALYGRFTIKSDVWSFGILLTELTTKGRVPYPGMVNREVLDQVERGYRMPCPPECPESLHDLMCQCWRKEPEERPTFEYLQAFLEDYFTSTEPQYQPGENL
Protocol: as §1
After reacting for about 90 minutes at room temperature, residual ATP was determined using a luciferase-based assay (KinaseGlo, Promega Corp.) as a measure of kinase activity. Data from four wells were then averaged and used to determine IC50 values for the test compounds (Prism software package, GraphPad Software, San Diego Calif.).
as §2

| Structure (SMILES) | IC50 |
| --- | --- |
| Cc1ccccc1-c1cc2nnc(Nc3ccc(S(=O)(=O)NCCN4CCCC4)cc3)nc2cc1C [4-(6-methyl-7-o-tolyl-benzo[1,2,4]triazin-3-ylamino)-N-(2-pyrrolidin-1-yl-ethyl)-benzenesulfonamide] | 10.2 nM |
| Cc1cc2nc(Nc3ccc(S(=O)(=O)NCCN4CCCC4)cc3)nnc2cc1-c1c(C)cccc1C [4-[7-(2,6-dimethyl-phenyl)-6-methyl-benzo[1,2,4]triazin-3-ylamino]-N-(2-pyrrolidin-1-yl-ethyl)-benzenesulfonamide] | 10.5 nM |
| Cc1cc(F)ccc1-c1cc2nnc(Nc3ccc(S(=O)(=O)NCCN4CCCC4)cc3)nc2cc1C [4-[7-(4-fluoro-2-methyl-phenyl)-6-methyl-benzo[1,2,4]triazin-3-ylamino]-N-(2-pyrrolidin-1-yl-ethyl)-benzenesulfonamide] | 20.4 nM |
| CC(=O)Nc1cc(-c2c(C)cccc2C)cc2nnc(Nc3ccc(OCCN4CCCC4)cc3)nc12 [N-{7-(2,6-dimethyl-phenyl)-3-[4-(2-pyrrolidin-1-yl-ethoxy)-phenylamino]-benzo[1,2,4]triazin-5-yl}-acetamide] | 6.8 nM |

Next, values leading:

| IC50 | Structure (SMILES) |
| --- | --- |
| 505 nM | COc1cccc(Cl)c1-c1cc(C)c2nc(Nc3ccc(OCCN4CCCC4)cc3)nnc2c1 [[7-(2-chloro-6-methoxy-phenyl)-5-methyl-benzo[1,2,4]triazin-3-yl]-[4-(2-pyrrolidin-1-yl-ethoxy)-phenyl]-amine] |
| 207 nM | Cc1noc(C)c1-c1cc(C)c2nc(Nc3ccc(OCCN4CCCC4)cc3)nnc2c1 [[7-(3,5-dimethyl-isoxazol-4-yl)-5-methyl-benzo[1,2,4]triazin-3-yl]-[4-(2-pyrrolidin-1-yl-ethoxy)-phenyl]-amine] |
| 1200 nM | COc1ccc(Cl)cc1-c1cc(C)c2nc(Nc3ccc(OCCN4CCCC4)cc3)nnc2c1 [[7-(5-chloro-2-methoxy-phenyl)-5-methyl-benzo[1,2,4]triazin-3-yl]-[4-(2-pyrrolidin-1-yl-ethoxy)-phenyl]-amine] |
| > 10000 nM | Cc1cc2nc(Nc3ccc(S(=O)(=O)NCCN4CCCC4)cc3)nnc2cc1Br [[7-Bromo-6-methyl-benzo[1,2,4]triazin-3-ylamino]-N-(2-pyrrolidin-1-yl-ethyl)-benzene-4-sulfonamide] |
